Reference: PubChem BioAssay (NCI)
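Compound exposure: 48 hours, 5 concentrations, 96-well plates. TGI denotes the concentration required for complete inhibition of growth.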 Where a SMILES comes first, the peptide text is derived from it. [ ]: non-standard residue; d: D form. The star is where a group is joined. mTyr = N[CH](Cc1cccc(O)c1)C(=O)O; Cbz = O=C(OCc1ccccc1)*; OBn = c1ccc(CO*)cc1

Key:
Assay in all cases: NCI tumour cell line growth inhibition, 48 h
ACHN renal = test system: ACHN renal
CCRF-CEM leukemia = test system: CCRF-CEM leukemia
IGROV1 ovarian = test system: IGROV1 ovarian
K-562 leukemia = test system: K-562 leukemia
KM12 colon = test system: KM12 colon
M14 melanoma = test system: M14 melanoma
MDA-MB-231 breast = test system: MDA-MB-231 breast
PC-3 prostate = test system: PC-3 prostate
SK-OV-3 ovarian = test system: SK-OV-3 ovarian
T-47D breast = test system: T-47D breast
UACC-257 melanoma = test system: UACC-257 melanoma

Row | SMILES | TGI (ACHN renal) [µM] | TGI (CCRF-CEM leukemia) [µM] | TGI (IGROV1 ovarian) [µM] | TGI (K-562 leukemia) [µM] | TGI (KM12 colon) [µM] | TGI (M14 melanoma) [µM] | TGI (MDA-MB-231 breast) [µM] | TGI (PC-3 prostate) [µM] | TGI (SK-OV-3 ovarian) [µM] | TGI (T-47D breast) [µM] | TGI (UACC-257 melanoma) [µM]
1 | COC(=O)c1c(O)ccc2c1C1(Cc3ccccc3C1=O)C(O)O2 (configuration not stated) | 55.7 | 11.7 | 36.3 | > 100 | 69.1 | 52.2 | 52.1 | 92.2 | 57.8 | 45.3 | > 100
2 | C#CCOCC12C=CC(O1)C1C(=O)OCC12 (configuration not stated) | > 100 | > 100 | > 100 | > 100 | > 100 | > 100 | > 100 | > 100 | > 100 | > 100 | > 100
3 | O=[As](O)(O)c1ccc(N=Nc2ccc(O)cc2)cc1 | > 100 | > 100 | > 100 | > 100 | > 100 | > 100 | > 100 | > 100 | > 100 | > 100 | –
4 | CC(C)(C)OC(=O)NCCC1CN(C(=O)c2ccccc2)c2ccccc21 (configuration not stated) | > 100 | – | > 100 | > 100 | > 100 | 33.6 | > 100 | > 100 | > 100 | 95.5 | 75.2
5 | O=C(/C=C/c1csc(-c2ccccc2)n1)NCc1ccc(C(=O)NCc2ccccc2)cc1 | > 100 | > 100 | > 100 | > 100 | > 100 | > 100 | 53.5 | > 100 | > 100 | > 100 | > 100
6 | COc1nc(N)c(N=CC(OC(C)=O)C(OC(C)=O)C(COC(C)=O)OC(C)=O)c(=O)n1C (configuration not stated) | > 100 | > 100 | > 100 | > 100 | > 100 | > 100 | > 100 | > 100 | > 100 | > 100 | > 100
7 | CC(C)(CC(O)C#N)/[N+]([O-])=[N+](\[O-])C(C)(C)CC(O)C#N (configuration not stated) | 74.5 | – | 49.6 | 42.5 | > 100 | 36.9 | 62.8 | > 100 | > 100 | 82.3 | 58.1
8 | COc1ccc(CSc2ccccc2Cn2cccc2)cc1OC | > 100 | > 100 | > 100 | > 100 | > 100 | – | – | – | > 100 | > 100 | > 100
9 | CC(C)(C)c1cc(C2COC(c3cc(C(C)(C)C)c(O)c(C(C)(C)C)c3)CO2)cc(C(C)(C)C)c1O (configuration not stated) | > 100 | > 100 | > 100 | > 100 | > 100 | > 100 | > 100 | > 100 | > 100 | > 100 | > 100
10 | COC(=O)C(Cc1cccc(O)c1)NC(=O)C(CC(=O)OCc1ccccc1)NC(=O)OCc1ccccc1 (configuration not stated) (Cbz-Asp(OBn)-[mTyr]-OMe; configuration not given here) | > 100 | – | > 100 | > 100 | > 100 | > 100 | > 100 | > 100 | – | 59.5 | > 100
11 | COc1cccc(N2C(=O)C3c4[nH]c5ccc(C)cc5c4C4CCC(C(C)(C)C)CC4C3C2=O)c1 (configuration not stated) | > 10 | 7.57 | > 10 | 7.67 | > 10 | > 10 | > 10 | > 10 | > 10 | > 10 | –
12 | O=C1NC(=S)N(c2ccccc2)C1=O | > 100 | > 100 | > 100 | > 100 | > 100 | – | > 100 | > 100 | > 100 | > 100 | > 100
13 | COc1cccc(NC(=O)C(C#N)=C(SC)SC)c1 | > 100 | > 100 | > 100 | > 100 | > 100 | > 100 | > 100 | > 100 | > 100 | – | > 100
14 | CC1(O)OC(=O)C2=C1CCC1C2CCC2(C)C(O)CCC12 (configuration not stated) | > 100 | > 100 | > 100 | > 100 | > 100 | > 100 | > 100 | – | – | > 100 | > 100
15 | O=C(Nc1cccc(F)c1)c1cc2ccc(O)cc2oc1=Nc1ccccc1F | 14.2 | 6.42 | 7.44 | > 100 | 22.4 | 17.4 | – | 24.3 | 15.9 | 12.1 | 31.1
16 | COc1ccc(N=C2C(=Nc3ccc(OC)cc3)N(c3ccccc3)C(=S)N2N=C=C2Sc3ccccc3N2C)cc1 | > 100 | – | > 100 | > 100 | > 100 | > 100 | > 100 | > 100 | > 100 | > 100 | > 100

Row | SMILES | TGI (ACHN renal) [µM] | TGI (CCRF-CEM leukemia) [µM] | TGI (IGROV1 ovarian) [µM] | TGI (K-562 leukemia) [µM] | TGI (KM12 colon) [µM] | TGI (M14 melanoma) [µM] | TGI (MDA-MB-231 breast) [µM] | TGI (PC-3 prostate) [µM] | TGI (SK-OV-3 ovarian) [µM] | TGI (T-47D breast) [µM] | TGI (UACC-257 melanoma) [µM]
17 | COc1ccc(/C=C2\CN(C)C/C(=C\c3ccc(OC)c(OC)c3OC)C2=O)c(OC)c1OC | 0.565 | 0.0805 | 1.07 | – | – | 0.283 | 0.488 | 1.43 | 1.89 | 6.22 | 0.571
18 | CCN(CC)CCNCc1cc(Cl)cc2c1OCOC2 | > 10 | > 10 | > 10 | > 10 | > 10 | > 10 | > 10 | > 10 | > 10 | > 10 | –
19 | Brc1c(C#CCC2CCCCC2)ccc(C#CCC2CCCCC2)c1Br | > 100 | > 100 | > 100 | > 100 | > 100 | > 100 | > 100 | > 100 | – | > 100 | > 100
20 | COc1cc([C@@H]2c3cc(O)c(OC)cc3C=C(C(N)=O)[C@H]2C(N)=O)ccc1O | > 100 | > 100 | > 100 | > 100 | > 100 | > 100 | > 100 | > 100 | – | > 100 | > 100
21 | CCOC(=O)c1ccc(C(=O)C(C(C)=O)C(=O)OC(C)(C)C)[nH]1 (configuration not stated) | > 100 | – | > 100 | > 100 | > 100 | > 100 | > 100 | > 100 | > 100 | > 100 | –
22 | Cc1ccc2nc(NC(=O)/C(Cc3nc4ccc(Cl)cc4[nH]c3=O)=N\NC(C)(C)C)sc2c1 | > 100 | > 100 | – | > 100 | > 100 | > 100 | > 100 | > 100 | > 100 | > 100 | > 100
23 | CCN(CC)Cc1sc2nc3ccccc3n2c1-c1ccc(OC)cc1 | > 100 | 67.6 | > 100 | 22.7 | > 100 | > 100 | > 100 | > 100 | > 100 | – | > 100
24 | O=C(CC(=O)Nc1ccccc1)N/N=C/c1cc(N=Nc2ccc(Br)cc2)ccc1O | – | 5.3 | > 10 | > 10 | > 10 | > 10 | > 10 | – | > 10 | > 10 | 7.71
25 | CNc1ccc(N)cc1C(=O)N1CCC[C@H]1CO | > 100 | > 100 | > 100 | – | > 100 | > 100 | > 100 | > 100 | > 100 | > 100 | > 100
26 | O=C(CSC1=NCCN1)Nc1ccccc1 | 53.8 | > 100 | > 100 | > 100 | > 100 | > 100 | 50.3 | 52.6 | – | 61.2 | 40.2
27 | CC(=O)OCC1OC(n2c(=O)[nH]c(=O)c3sccc32)C(Br)C1OC(C)=O (configuration not stated) | > 100 | > 100 | > 100 | > 100 | > 100 | > 100 | > 100 | > 100 | – | – | > 100
28 | O=C(O)CNC(=O)c1c2ccccc2nc2ccccc12 | > 100 | > 100 | > 100 | > 100 | > 100 | > 100 | > 100 | > 100 | > 100 | – | > 100
29 | O=C1C[C@@H](c2ccccc2)O[C@@H](c2ccccc2)C1 | – | > 100 | > 100 | > 100 | > 100 | > 100 | > 100 | > 100 | > 100 | > 100 | > 100
30 | CC(C)CN=C(N)N=C(N)N | > 100 | – | > 100 | > 100 | > 100 | > 100 | > 100 | > 100 | > 100 | > 100 | > 100
31 | CC(C)C1=CC23CCC4C(C)(C(=O)O)CCCC4(C)C2CC1C1C(=O)N(c2ccc(C(=O)O)cc2)C(=O)C13 (configuration not stated) | > 100 | – | > 100 | > 100 | > 100 | > 100 | > 100 | > 100 | > 100 | > 100 | > 100
